This is an account of results in US11260042B2, “Pharmaceutical combination for the treatment of cancer” (ABILITY PHARMACEUTICALS S.L., priority 2017, dated 2022).

Data set [1] deals with SH-SY5Y human neuroblastoma xenograft. The class given is in vivo, Nu/nu female mice. As to the method:
Methods: Immunodeficient athymic NMRI-Foxn1^nu/Foxn1^nu nude mice were subcutaneously injected with SH-SY5Y cells. This cell line was genetically modified to express luciferase, which would allow the in vivo study not only of tumor size, but also of metastasis formation. When tumors reached an average volume of 80 mm^3, mice were randomly distributed into different treatment groups. ABTL0812 was administered orally at 120 mg/kg daily. In parallel we used cisplatin, a drug included in the chemotherapy induction phase for the treatment of neuroblastoma. Cisplatin was administered at 2 mg/kg i.p. twice a week (Wang et al. 2010). Additionally, we studied the effect of combining ABTL0812 with cisplatin at the indicated doses.
C. Metastasis formation. In order to investigate the effect of ABTL0812 in metastasis formation we used a SH-SY5Y cell line transduced with a luciferase reporter vector. As described above, mice bearing xenograft tumors derived from this cell line were treated with ABTL0812, cisplatin or the combination of both drugs. After ten days of treatment animals were sacrificed and metastasis were assessed ex vivo by monitoring luciferase-expressing cells in lung and liver.

Data set [2] concerns EGI-1 human cholangiocarcinoma xenograft. The data set is described as follows: Human cholangiocarcinoma (EGI-1) xenograft, gemcitabine and cisplatin. The class given is in vivo, Nu/nu male mice. The note with it: ABTL0812 120 mg/kg oral; gemcitabine 50 mg/kg and cisplatin 2 mg/kg i.p. once a week. For orientation: Xenograft models place foreign cells or tissue in a host animal.
Method: Methods: EGI-1 cell line was routinely cultured in DMEM 10% FBS and cells in an exponential growth phase were harvested and counted for tumor inoculation.
Treatment groups were: • Vehicle group (n=8): treated orally with 200 μl of water+5% glycerol four days a week and two injections i.p. of 100 μl of saline solution once a week • ABTL0812 (n=8): treated orally with 200 μl of 120 mg/kg of ABTL0812 resuspended in water+5% glycerol 5 times a week • Gemcitabine/cisplatin (n=8): treated with 100 μl of 50 mg/kg of gemcitabine administered i.p. and 100 μl of 2 mg/kg of cisplatin administered i.p. once a week • ABTL0812+gemcitabine/cisplatin (n=8): treated orally with 200 μl of 120 mg/kg of ABTL0812 four days a week and 100 μl of 50 mg/kg of gemcitabine administered i.p. and 100 μl of 2 mg/kg of cisplatin administered i.p. once a week

Data set [3] has as its system MDB-DA-231 (human triple negative breast cancer). The data set can be described thus: Cell viability (MTT) of ABTL0812 alone or with paclitaxel in breast cancer. The class given is cell-based. The procedure:
Methods: MDB-DA-231 cells were seeded in 24-well plates together with increasing concentration of paclitaxel (1-100 nM) in the presence of 5, 10 and 20 μM of ABTL0812 (all doses below to an IC25) for 48h (0.5% FBS). Cell viability was studied by the MTT assay and several parameters were determined to evaluate a possible synergism. First the IC50 for each drug alone or the combination was calculated.

The test system of data set [4] is HTB-812 cells. The data set can be described thus: Cell viability (MTT) of ABTL0812 in combination with paclitaxel, HTB-812. Type of data set: cell-based, human. The note with it: HTB-812, 48 hours, 0.1% FBS, single agent. As to the method: Methods: A549 cells were incubated with increasing concentrations of ABTL0812 (3-300 μM), paclitaxel (0.003-1 μM), or a combination of both using subIC50 fixed concentration of ABTL0812 and 0.003-1 μM paclitaxel for 72 hours in DMEM with 0.1% FBS. H157, H1957 and HTB-812 cells were incubated with increasing concentrations of paclitaxel (0.001-10 μM) alone and in combination with subIC50 fixed concentration of ABTL0812 for 48 hours in DMEM with 0.1% FBS. Cell viability was evaluated in all cases by MTT assay and IC50's were calculated for paclitaxel and the combination. The concentrations of the combinations for the different cell lines were:
Finally, the Combination Index (CI), as described in the previous section, was calculated for the values of paclitaxel IC50.

Data set [5] concerns MiaPaca2 (human pancreatic carcinoma). The data set is described as follows: Cell viability (MTT) of ABTL0812 alone or with gemcitabine in pancreatic cancer. Type of data set: cell-based. As to the method: Methods: MiaPaca2 cells were seeded in 24-well plates together with gemcitabine (0.01-100 μM), ABTL812 (3-300 μM), or a combination of both (subIC50, i.e., 25 μM fixed concentration of ABTL0812 with 0.01-100 μM gemcitabine) and left in the incubator for 72h (0.5% FBS). Cell viability was studied by the MTT assay and several parameters were determined to evaluate a possible synergism. First the IC50 for each drug alone or the combination was calculated. Then, synergism (CI) was calculated as described above.

As to `CCCCC/C=C\C/C=C\CCCCCCC(O)C(=O)O` (stereo not shown) [ABTL0812, COOH—CHOH—(CH2)6—(CH═CH—CH2)2—(CH2)3—CH3], the “tumor progression (size, weight)” value in data set [1] (ABTL0812 120 mg/kg oral daily, cisplatin 2 mg/kg i.p. twice a week) was “inhibits tumor progression with an efficacy that is similar to cisplatin”. Moreover, in data set [1] (mouse, in vivo), the Hematocrit came to 40.2 ± 1.4%, the RBC is given as 7.9 ± 0.4 ×10^6/μL, the WBC is 3.9 ± 1.3 ×10^3/μL and the “hematological safety” value is given as “no impact on blood hematocrit”. Moreover, in data set [1] (mouse, in vivo), the “loss of body weight (transient)” value was below 10%. Besides, the “metastasis formation in lung and liver” value in data set [1] (ten days of treatment, luciferase-expressing cells ex vivo) is given as “inhibited metastasis formation”. Besides, the tumor volume result in data set [2] is reported as “did not show tumor volume reduction compared to vehicle until the last day of treatment”. The “cytotoxicity alone at the concentration chosen for the combination” value in data set [3] (MDB-DA-231) is below 10%. The IC50 in data set [3] (MDB-DA-231, 48h, 0.5% FBS, MTT, single agent) came out at 29 µM. Further, in data set [4], the IC50 came to 29 µM. Besides, the “cytotoxicity alone at the concentration chosen for the combination” value in data set [5] (MiaPaca2, 25 μM ABTL0812) is listed as below 10%. Also, the IC50 in data set [5] (MiaPaca2, 72h, 0.5% FBS, MTT, single agent) came out at 49 µM.

One may read the IC50 as the midpoint of a concentration-inhibition curve.
